Common to all, as to experiment: ITC, one set of sites model
The target of assay [1] is T1, SbtB (Synechocystis sp. PCC 6803, UniProt P73954).
T1 construct: gene slr1513; R-loop Cys105-Cys110
The conditions noted are these: WT oxidized R-loop; re-calculated here from the group's earlier ITC data (ref 11) with single binding model; cited from earlier work.

The next assay has as its target T2, SbtB-Δ104 (Synechocystis sp. PCC 6803, UniProt P73954).
T2 construct: gene slr1513; C-terminal R-loop truncated, StrepII-tagged, recombinant, trimer
In kind it is binding.

The next assay concerns the target T3, SbtB-Δ109 (Synechocystis sp. PCC 6803, UniProt P73954).
T3 construct: gene slr1513; last residue Cys110 deleted, StrepII-tagged, recombinant, trimer
It is filed as binding.

Assay [2] has as its target T4, SbtB (Synechocystis sp. PCC 6803, UniProt P73954, C105A/C110A).
T4 construct: gene slr1513; R-loop Cys105-Cys110
It is filed as binding.

Assay [3] has as its target T5, SbtB (Synechocystis sp. PCC 6803, UniProt P73954, C105S/C110S).
T5 construct: gene slr1513; R-loop Cys105-Cys110
In kind it is binding.

Assay [4] has as its target T6, SbtB (Synechocystis sp. PCC 6803, UniProt P73954, C110S).
T6 construct: gene slr1513; R-loop Cys105-Cys110
It is filed as binding.

Assay [5] deals with T7, SbtB (Synechocystis sp. PCC 6803, UniProt P73954, C105S).
T7 construct: gene slr1513; R-loop Cys105-Cys110
T7 sequence (P73954 whole entry C105S): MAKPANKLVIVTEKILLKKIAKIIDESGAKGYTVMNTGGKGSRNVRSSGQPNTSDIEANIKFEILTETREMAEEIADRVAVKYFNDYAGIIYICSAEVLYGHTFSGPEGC
In kind it is binding.

SMILES strings stand for the structures.

T1 sequence (P73954 whole entry): as the sequence (P73954 whole entry C105S) above, with S105C counted along it
T2 sequence (P73954 1-104, stated change not applied): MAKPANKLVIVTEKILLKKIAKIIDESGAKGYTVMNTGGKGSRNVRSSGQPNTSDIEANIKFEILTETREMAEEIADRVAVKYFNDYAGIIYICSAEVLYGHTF
T6 sequence (P73954 whole entry C110S): as the sequence (P73954 whole entry C105S) above, with S105C, C110S counted along it
T4 sequence (P73954 whole entry C105A/C110A): as the sequence (P73954 whole entry C105S) above, with S105A, C110A counted along it
T3 sequence (P73954 1-109, stated change not applied): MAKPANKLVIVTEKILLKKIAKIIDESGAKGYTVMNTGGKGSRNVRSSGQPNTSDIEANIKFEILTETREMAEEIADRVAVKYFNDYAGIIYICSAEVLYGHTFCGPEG
T5 sequence (P73954 whole entry C105S/C110S): as the sequence (P73954 whole entry C105S) above, with C110S counted along it

With `Nc1ncnc2c1ncn2[C@@H]1O[C@H](COP(=O)(O)OP(=O)(O)O)[C@@H](O)[C@H]1O` [ADP], the Kd is 55.8 ± 7.7 µM at SbtB [1] and 79.2 ± 55.1 µM at SbtB-Δ104.
With `Nc1ncnc2c1ncn2[C@@H]1O[C@H](COP(=O)(O)O)[C@@H](O)[C@H]1O` [AMP], the Kd at SbtB [1] is 87.4 ± 3.7 µM; at SbtB-Δ104, 78.2 ± 6 µM.
On to `Nc1ncnc2c1ncn2[C@@H]1O[C@H](COP(=O)(O)OP(=O)(O)OP(=O)(O)O)[C@@H](O)[C@H]1O` [ATP], for which the Kd was 62.5 ± 16.6 µM on SbtB [1]; 32.5 ± 17.9 µM on SbtB-Δ109; 29.8 ± 14.1 µM on SbtB [2]; 47.6 ± 21.3 µM on SbtB [3]; 60.1 ± 6.7 µM on SbtB [4]; 35 ± 7.1 µM on SbtB-Δ104. Binding at SbtB [5] was put at a Kd of 40.5 ± 75.9 µM.

Source of the values: paper PMC10991534, “The redox-sensitive R-loop of the carbon control protein SbtB contributes to the regulation of the cyanobacterial CCM” (Scientific Reports, 2024).
